Source: ChEMBL document CHEMBL4622996, “Discovery of Vixotrigine: A Novel Use-Dependent Sodium Channel Blocker for the Treatment of Trigeminal Neuralgia” (ACS Med Chem Lett, 2020)

Assays:
[1] = target: T1, Solute carrier organic anion transporter family member 1B3 (Homo sapiens, UniProt Q9NPD5); assay: Inhibition of OATP1B3 (unknown origin)
T1 sequence (Q9NPD5 whole entry): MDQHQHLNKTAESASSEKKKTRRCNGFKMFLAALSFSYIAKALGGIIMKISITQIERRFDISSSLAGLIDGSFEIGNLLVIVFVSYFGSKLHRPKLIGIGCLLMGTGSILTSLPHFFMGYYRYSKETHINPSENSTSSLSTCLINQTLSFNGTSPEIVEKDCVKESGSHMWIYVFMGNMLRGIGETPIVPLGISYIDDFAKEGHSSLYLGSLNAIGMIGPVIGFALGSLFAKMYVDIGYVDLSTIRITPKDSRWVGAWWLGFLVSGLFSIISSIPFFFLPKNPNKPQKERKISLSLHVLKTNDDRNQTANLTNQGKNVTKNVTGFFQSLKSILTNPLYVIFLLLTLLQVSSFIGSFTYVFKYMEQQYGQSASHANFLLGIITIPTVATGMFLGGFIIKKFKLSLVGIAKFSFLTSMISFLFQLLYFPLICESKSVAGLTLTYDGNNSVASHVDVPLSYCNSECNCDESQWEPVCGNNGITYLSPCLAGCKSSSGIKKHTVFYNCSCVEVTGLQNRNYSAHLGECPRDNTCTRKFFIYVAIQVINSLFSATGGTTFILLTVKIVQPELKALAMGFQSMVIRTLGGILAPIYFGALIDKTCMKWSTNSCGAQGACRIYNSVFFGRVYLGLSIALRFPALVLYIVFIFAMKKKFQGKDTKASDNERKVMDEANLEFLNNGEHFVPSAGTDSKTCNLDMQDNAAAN

[2] = Half life in monkey at 0.5 mg/kg, iv; format: ADME, organism-based, Macaca mulatta; conditions: rhesus monkey, in vivo
[3] = target: T2, Amine oxidase [flavin-containing] A (Homo sapiens, UniProt P21397); assay: Inhibition of MAO-A (unknown origin)
T2 sequence (P21397 whole entry): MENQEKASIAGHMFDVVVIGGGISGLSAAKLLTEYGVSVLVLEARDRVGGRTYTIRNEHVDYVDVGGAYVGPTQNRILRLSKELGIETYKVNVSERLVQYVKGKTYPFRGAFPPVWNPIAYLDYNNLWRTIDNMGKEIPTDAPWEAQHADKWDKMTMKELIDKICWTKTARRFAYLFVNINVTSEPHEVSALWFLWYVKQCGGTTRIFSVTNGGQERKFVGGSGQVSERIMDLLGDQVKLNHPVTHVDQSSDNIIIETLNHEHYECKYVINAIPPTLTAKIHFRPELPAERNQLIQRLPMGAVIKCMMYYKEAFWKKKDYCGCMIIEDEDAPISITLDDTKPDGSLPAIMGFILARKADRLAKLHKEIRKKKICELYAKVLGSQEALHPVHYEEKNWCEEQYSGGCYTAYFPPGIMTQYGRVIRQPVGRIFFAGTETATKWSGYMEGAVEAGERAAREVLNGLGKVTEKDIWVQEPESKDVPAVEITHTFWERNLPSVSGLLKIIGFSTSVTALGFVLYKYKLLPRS

inhibition (INH) [1]: Not Active
half-life [2]: 5 h
Ki [3]: > 10 µM
Structure (SMILES): Cl.NC(=O)[C@@H]1CC[C@H](c2ccc(OCc3ccccc3F)cc2)N1 [RAXATRIGINE HYDROCHLORIDE]
